Test results published in patent US20110033525A1, “Diterpene Glycosides as Natural Solubilizers” (priority 2008, published 2011).
In brackets after ≈: the same amount, converted by molar mass. Each block holds one molecule with its values, some of them ahead of it.

Columns and labels:
[1] = physchem; conditions: for Aqueous drug concentration, 10% RUBUSOSIDE: Table 8, 10% w/v rubusoside (SFA) water solution
Protocol: Solubility test methods: A compound with low solubility was selected and weighed into multiple centrifuge tubes. Each experimental tube received a known amount of the solubilizing agent being tested. The control tubes remained only with the compound. The same volume, 1 mL, unless otherwise indicated, of deionized and distilled water was added to each tube. Alternatively, a set percentage of water solutions containing the solubilizer to be tested (e.g., 5% w/v or 10% w/v) were prepared separately. In these cases, the solubilizer-water solutions were added directly to the tubes containing the low-solubility compound. The tubes were then vortexed briefly and then sonicated for 60 min at temperature of 50° C. unless otherwise indicated. After sonication, the tubes were placed on an orbital shaker at a speed of 80 rpm in an incubator set at 25° C. for at least 24 hr. The tubes were then centrifuged at 4000 rpm for 10 min. The supernatant solution was passed through a 0.2 μm or 0.45 μm filter and analyzed for the concentration of the low-solubility compound, and sometimes the solubilizing compound, by HPLC or UV-Vis spectrophotometer.
The system was computer controlled, and the results were analyzed using Empower software. Calibrations curves were constructed using known concentrations of the compounds and were used to quantify the concentrations of the compounds dissolved in solution. A more complete description of the HPLC procedure for some of the diterpene glycosides is found in G. Chou et al., “Quantitative and fingerprint analyses of Chinese sweet tea plant (Rubus suavissimus S. Lee),” J. Agric. Food Chem., vol.
The ratio of peak areas was used to calculate the increase in water solubility in the absence or presence of solubilizers.

[2] = cited from earlier work; for Aqueous drug concentration, AQUEOUS SOLUTION: Table 8, without rubusoside, same values as published ones of Table 1; for Water solubility in words: The Merck Index (1996) or Material Safety Data Sheets
[3] = Estimated safe daily consumption of steviol glycosides
Excerpt: Some diterpene glycosides have been approved by the FDA as sweeteners (e.g., rebaudioside A).

[4] = 25 °C, aqueous with cosolvent or surfactant or cyclodextrin, thermodynamic from solid, Solubility in water with solubilizer
[5] = 25 °C, aqueous with cosolvent or surfactant or cyclodextrin, thermodynamic from solid, Solubility in water with solubilizer, natural solubilizer (rubusoside) 10% w/v (100 mg in 1 ml)

SMILES: Cc1c(C)c2c(c(C)c1O)CC[C@@](C)(CCC[C@H](C)CCC[C@H](C)CCCC(C)C)O2 [Alpha-Tocopherol (VE), Alpha-tocopherol]
Solubility in water with solubilizer [1]: 13,250 μg/mL
Solubility increase factor [1]: Many

SMILES: C[C@@H]1[C@H](O)[C@@H](C)/C=C/C=C/C=C/C=C/C=C/C=C/C=C/[C@H](O[C@@H]2O[C@H](C)[C@@H](O)[C@H](N)[C@@H]2O)C[C@@H]2O[C@](O)(C[C@@H](O)C[C@@H](O)[C@H](O)CC[C@@H](O)C[C@@H](O)CC(=O)O[C@H]1C)C[C@H](O)[C@H]2C(=O)O [Amphotericin B, reference compound]
Aqueous drug concentration, 10% RUBUSOSIDE [1]: 200 µg/mL
Aqueous drug concentration, AQUEOUS SOLUTION [2]: 82 µg/mL

SMILES: C[C@@H]1CC[C@H]2[C@@H](C)C(=O)O[C@@H]3O[C@@]4(C)CC[C@@H]1[C@]32OO4 [Artemisinin, reference compound]
Solubility increase factor [1]: 5
solubility [1, 4]: 280 µg/mL (≈ 0.992 mM)

SMILES: COc1cc(CNC(=O)CCCC/C=C/C(C)C)ccc1O [Capsaicin, reference compound]
Concentration in water without rubusoside (control sample) [1]: 57 µg/mL
Solubility increase factor [1]: 86
Concentration dissolved in rubusoside water solution ([1]; 20 mg rubusoside in 1 ml water): 589 µg/mL
solubility [1, 5]: 4920 µg/mL (≈ 16.1 mM)
solubility ([1]; 25 °C, water, thermodynamic from solid, Solubility): 57 µg/mL (≈ 0.187 mM)

SMILES: C[C@@H]1[C@H](O)[C@@H](C)/C=C/C=C/CC/C=C/C=C/C=C/C=C/C(O[C@H]2O[C@H](C)[C@@H](O)[C@H](N)[C@@H]2O)CC2O[C@](O)(CC(O)C(O)CCC(O)CC(O)CC(O)CC(=O)O[C@H]1C)CC(O)C2C(=O)O (stereo partly shown) [Nystatin, reference compound]
Aqueous drug concentration, 10% RUBUSOSIDE [1]: 1,100 μg/ml
Aqueous drug concentration, AQUEOUS SOLUTION [2]: 66 µg/mL

SMILES: COc1cc([C@@H]2c3cc4c(cc3[C@H](O)[C@H]3COC(=O)[C@H]23)OCO4)cc(OC)c1OC [Podophyllotoxin, reference compound]
solubility ([1]; 25 °C, aqueous with cosolvent or surfactant or cyclodextrin, thermodynamic from solid): 919 µg/mL (≈ 2.22 mM)
Water solubility in words [2]: nearly insoluble

SMILES: CC(C)c1cccc(C(C)C)c1O [Propofol, reference compound]
Concentration in water without rubusoside (control sample) [1]: no measurable propofol
Solubility increase factor [1]: 74
solubility [1, 4]: 11700 µg/mL (≈ 65.6 mM)

SMILES: C[C@@H]1O[C@@H](OC[C@H]2O[C@@H](Oc3c(-c4ccc(O)c(O)c4)oc4cc(O)cc(O)c4c3=O)[C@H](O)[C@@H](O)[C@@H]2O)[C@H](O)[C@H](O)[C@H]1O [Rutin]
solubility [1, 4]: 1750 µg/mL (≈ 2.87 mM)
Water solubility in words [2]: nearly insoluble

SMILES: Cc1coc2c1C(=O)C(=O)c1c-2ccc2c1CCCC2(C)C [Tanshinone IIA]
solubility [1, 5]: ~53.3 µg/mL (≈ 0.181 mM)
solubility ([1]; 25 °C, aqueous with cosolvent or surfactant or cyclodextrin, thermodynamic from solid, Solubility in water with solubilizer, natural solubilizer (rubusoside) 20% w/v (200 mg in 1 ml)): ~128 µg/mL (≈ 0.434 mM)
Water solubility in words [2]: nearly insoluble

SMILES: C=C1C[C@@]23CC[C@H]4[C@@](C)(CCC[C@@]4(C)C(=O)O[C@@H]4O[C@H](CO)[C@@H](O)[C@H](O)[C@H]4O)[C@@H]2CC[C@]1(O[C@@H]1O[C@H](CO)[C@@H](O)[C@H](O)[C@H]1O)C3 [rubusoside, b-D-glucosyl ester of 13-O-b-D-glucosyl-steviol]
Water solubility [1]: about 60 g/100 mL water
solubility ([1]; 25 °C, water, Solubility in water): ~400000 µg/mL (≈ 622 mM)
solubility ([1]; 37 °C, water, Solubility in water): ~800000 µg/mL (≈ 1240 mM)
Daily consumption that is safe and has no adverse effect [3]: 8 mg rubusoside/kg body weight
No-observed-effect level ([3]; estimate based on 383 mg/kg expressed as steviol): up to 766 mg rubusoside/kg body weight

The next lines start with results.

Concentration in water without rubusoside (control sample) [1]: not detected
Solubility increase factor [1]: Many
solubility [1, 4]: 488 µg/mL (≈ 1.28 mM)
SMILES: Cc1ccc(-c2cc(C(F)(F)F)nn2-c2ccc(S(N)(=O)=O)cc2)cc1 [Celecoxib, reference compound]

Solubility in water with solubilizer [1]: 111 µg/mL
Solubility increase factor [1]: 1110
solubility [1, 4]: 111 µg/mL (≈ 0.129 mM)
SMILES: COC1=C(OC)C(=O)C(C/C=C(\C)CC/C=C(\C)CC/C=C(\C)CC/C=C(\C)CC/C=C(\C)CC/C=C(\C)CC/C=C(\C)CC/C=C(\C)CC/C=C(\C)CCC=C(C)C)=C(C)C1=O [Coenzyme Q10]

Solubility increase factor [1]: 11
solubility [1, 4]: 5330 µg/mL (≈ 7.27 mM)
SMILES: CC[C@H]1OC(=O)[C@H](C)[C@@H](O[C@H]2C[C@@](C)(OC)[C@@H](O)[C@H](C)O2)[C@H](C)[C@@H](O[C@@H]2O[C@H](C)C[C@H](N(C)C)[C@H]2O)[C@](C)(O)C[C@@H](C)C(=O)[C@H](C)[C@@H](O)[C@]1(C)O [Erythromycin, reference compound]

Solubility increase factor [1]: 9.6
Amount dissolved in 1 ml water ([1]; 400 mg rubusoside, 25° C.): 106 mg
Amount dissolved in 1 ml water ([1]; 800 mg rubusoside, 37° C.): 212 mg
Fold increase over amount dissolved in plain water ([1]; 800 mg rubusoside, 37° C.): 19.3 fold
solubility [1, 4]: 106000 µg/mL (≈ 623 mM)
SMILES: O=C(O)c1cc(O)c(O)c(O)c1 [Gallic acid]

Concentration in water without rubusoside (control sample) [1]: not detected
Solubility in water with solubilizer [1]: 21 µg/mL
Solubility increase factor [1]: Many
SMILES: CCC(C)n1ncn(-c2ccc(N3CCN(c4ccc(OCC5COC(Cn6cncn6)(c6ccc(Cl)cc6Cl)O5)cc4)CC3)cc2)c1=O (stereo not shown) [Itraconazole, reference compound]

Solubility increase factor [1]: 92
solubility [1, 4]: 240 µg/mL (≈ 0.263 mM)
SMILES: CO[C@H]1C[C@@H]2CC[C@@H](C)[C@@](O)(O2)C(=O)C(=O)N2CCCC[C@H]2C(=O)O[C@H]([C@H](C)C[C@@H]2CC[C@@H](O)[C@H](OC)C2)CC(=O)[C@H](C)/C=C(\C)[C@@H](O)[C@@H](OC)C(=O)[C@H](C)C[C@H](C)/C=C/C=C/C=C/1C [Rapamycin (Sirolimus), Rapamycin, reference compound]
Water solubility in words [2]: insoluble

Solubility increase factor [1]: Many
solubility [1, 4]: 150 µg/mL (≈ 0.311 mM)
SMILES: COc1cc(C2Oc3cc([C@H]4Oc5cc(O)cc(O)c5C(=O)[C@@H]4O)ccc3OC2CO)ccc1O (stereo partly shown) [Silybin (Silibinin), Silybin]
